Experimental data from ChEMBL document CHEMBL1201862, “PubChem BioAssay data set” (2004).
The source made the active and inactive calls.

Columns and labels:
[1] = target: T1, High affinity choline transporter 1 (Homo sapiens, UniProt Q9GZV3); test: CHT inhibitors, dose response, cell-based, 5-point CRC, membrane potential dye (AID 504840); format: functional
T1 sequence (Q9GZV3 whole entry): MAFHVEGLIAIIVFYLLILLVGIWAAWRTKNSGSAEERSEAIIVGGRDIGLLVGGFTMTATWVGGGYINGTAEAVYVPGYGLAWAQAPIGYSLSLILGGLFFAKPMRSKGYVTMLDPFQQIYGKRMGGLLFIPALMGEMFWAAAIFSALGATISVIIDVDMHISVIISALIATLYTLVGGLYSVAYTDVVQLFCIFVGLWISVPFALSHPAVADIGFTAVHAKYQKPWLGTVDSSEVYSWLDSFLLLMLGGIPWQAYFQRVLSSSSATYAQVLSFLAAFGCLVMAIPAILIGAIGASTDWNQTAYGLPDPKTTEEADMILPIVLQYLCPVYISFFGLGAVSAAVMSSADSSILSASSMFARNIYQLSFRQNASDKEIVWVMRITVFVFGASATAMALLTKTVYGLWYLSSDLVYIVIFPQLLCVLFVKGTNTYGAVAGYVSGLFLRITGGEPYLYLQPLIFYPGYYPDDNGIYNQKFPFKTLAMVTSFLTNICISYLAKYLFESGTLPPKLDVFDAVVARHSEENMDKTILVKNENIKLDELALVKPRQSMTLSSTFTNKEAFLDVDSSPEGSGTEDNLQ

[2] = target: Nonstructural protein 1 (Influenza A virus, UniProt Q194T2); format: functional, Influenza A virus (A/California/07/2009(H1N1))
[3] = target: T2, Fatty acid synthase (Homo sapiens, UniProt P49327); test: FAS thioesterase domain inhibitors, dose response, biochemical, endpoint fluorescence intensity, uHTS hits (AID 624327); format: functional;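 note: fluorescence from hydrolysis of an O-methyl fluorescein acyl ester substrate by the enzyme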
[4] = target: T2, Fatty acid synthase; test: FAS thioesterase domain inhibitors, dose response, biochemical, kinetic fluorescence intensity (AID 624326); format: functional;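 note: rate of fluorescence rise from hydrolysis of a fluorogenic O-methyl fluorescein ester substrate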
[5] = NIH-3T3 fibroblast cytotoxicity, dose response, cytotoxicity control, cell-based, fluorescence, Alamar Blue, secondary assay (AID 2327); format: functional;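 note: NIH-3T3 mouse fibroblasts cultured with fluconazole at 8 µg/mL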
[6] = target: T3, Calpain-2 catalytic subunit (Sus scrofa, UniProt P43367); test: pig calpain II inhibitor potency, dose response, biochemical, fluorogenic peptide substrate (AID 1420); format: functional
T3 sequence (P43367 whole entry): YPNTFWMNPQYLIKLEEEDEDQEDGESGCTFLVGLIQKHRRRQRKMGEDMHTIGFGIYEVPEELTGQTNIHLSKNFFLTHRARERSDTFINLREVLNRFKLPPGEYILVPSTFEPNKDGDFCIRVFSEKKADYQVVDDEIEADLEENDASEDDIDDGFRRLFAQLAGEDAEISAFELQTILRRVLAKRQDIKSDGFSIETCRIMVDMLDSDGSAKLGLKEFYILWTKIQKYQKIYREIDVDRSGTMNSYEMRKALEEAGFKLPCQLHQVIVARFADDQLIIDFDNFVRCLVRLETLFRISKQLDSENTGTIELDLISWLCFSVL

[7] = C. albicans growth with fluconazole, confirmation, fluorescence, retest (AID 2467); format: functional, cell-based
[8] = target: T4, Polyadenylate-binding protein 1 (Homo sapiens, UniProt P11940); test: PABP1 MLLE–PAM2 interaction inhibitors, dose response, miRNA deadenylation inhibitor project, biochemical, fluorescence polarization, Cy5-PAM2 peptide, secondary (AID 602260); format: functional; settings: read-out: IC50_Mean
[9] = target: T4, Polyadenylate-binding protein 1; test: PABP1 MLLE–PAM2 binding inhibitor potency, dose response, biochemical, fluorescence polarization, FITC-PAM2 peptide (AID 602259); format: functional; settings: read-out: IC50_Mean
[10] = target: T5, Protein RecA (Mycobacterium tuberculosis, UniProt P9WHJ3); test: Fluorescence Cell-Free Homogeneous Dose Retest to Identify Inhibitors of RecA-Intein Splicing Activity. [Related pubchem assays (depositor defined):AID2097, AID2223, AID489010, AID492950]; format: functional
T5 sequence (P9WHJ3 whole entry): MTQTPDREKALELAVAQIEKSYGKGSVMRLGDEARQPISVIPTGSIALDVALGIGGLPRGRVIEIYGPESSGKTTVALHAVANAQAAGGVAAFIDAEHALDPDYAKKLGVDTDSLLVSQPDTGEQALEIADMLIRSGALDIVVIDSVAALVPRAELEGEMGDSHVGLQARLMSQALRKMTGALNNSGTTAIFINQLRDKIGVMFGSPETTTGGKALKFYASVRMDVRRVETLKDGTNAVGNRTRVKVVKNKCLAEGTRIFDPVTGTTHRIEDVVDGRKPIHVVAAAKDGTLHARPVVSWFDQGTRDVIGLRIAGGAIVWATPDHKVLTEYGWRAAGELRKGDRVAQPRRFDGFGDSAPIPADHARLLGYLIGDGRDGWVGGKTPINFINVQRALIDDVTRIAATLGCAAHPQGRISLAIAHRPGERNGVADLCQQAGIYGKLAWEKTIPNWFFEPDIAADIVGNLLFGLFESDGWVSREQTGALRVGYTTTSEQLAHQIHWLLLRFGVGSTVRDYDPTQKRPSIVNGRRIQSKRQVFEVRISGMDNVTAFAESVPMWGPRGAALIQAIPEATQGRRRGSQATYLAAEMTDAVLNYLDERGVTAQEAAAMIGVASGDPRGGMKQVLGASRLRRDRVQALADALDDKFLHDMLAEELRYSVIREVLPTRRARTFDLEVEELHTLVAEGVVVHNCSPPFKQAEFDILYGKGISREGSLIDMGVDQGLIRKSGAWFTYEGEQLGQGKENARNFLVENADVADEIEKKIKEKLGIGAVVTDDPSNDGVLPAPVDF

[11] = target: T6, Replicative DNA helicase DnaB (Mycobacterium tuberculosis, UniProt P9WMR3); test: DnaB intein splicing inhibitors, dose response, biochemical, cell-free fluorescence (AID 449749); format: functional
T6 sequence (P9WMR3 whole entry): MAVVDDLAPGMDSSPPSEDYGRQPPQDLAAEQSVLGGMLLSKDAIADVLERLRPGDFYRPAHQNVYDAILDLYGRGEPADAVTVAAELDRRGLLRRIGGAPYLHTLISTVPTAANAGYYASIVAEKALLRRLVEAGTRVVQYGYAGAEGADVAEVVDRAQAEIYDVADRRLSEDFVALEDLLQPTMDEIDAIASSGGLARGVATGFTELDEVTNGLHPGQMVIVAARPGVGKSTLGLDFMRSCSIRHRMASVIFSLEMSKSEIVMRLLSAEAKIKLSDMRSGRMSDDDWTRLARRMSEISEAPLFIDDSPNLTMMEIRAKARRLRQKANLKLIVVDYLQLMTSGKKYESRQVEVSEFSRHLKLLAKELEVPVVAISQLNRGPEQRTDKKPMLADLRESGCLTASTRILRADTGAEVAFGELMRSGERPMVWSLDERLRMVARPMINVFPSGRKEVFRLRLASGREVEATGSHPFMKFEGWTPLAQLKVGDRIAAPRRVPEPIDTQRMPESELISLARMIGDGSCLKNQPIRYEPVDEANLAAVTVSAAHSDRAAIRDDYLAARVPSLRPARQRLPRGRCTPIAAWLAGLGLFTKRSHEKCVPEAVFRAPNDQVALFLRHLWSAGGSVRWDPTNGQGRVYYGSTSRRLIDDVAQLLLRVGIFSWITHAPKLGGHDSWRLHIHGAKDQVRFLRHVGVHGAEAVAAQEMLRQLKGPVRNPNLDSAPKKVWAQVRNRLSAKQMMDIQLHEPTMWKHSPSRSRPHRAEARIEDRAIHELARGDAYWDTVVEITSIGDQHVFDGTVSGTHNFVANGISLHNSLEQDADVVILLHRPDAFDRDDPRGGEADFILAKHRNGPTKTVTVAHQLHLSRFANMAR

[12] = target: T7, RNA-binding protein pos-1 (Caenorhabditis elegans, UniProt G5EF15); test: inhibitors of POS-1/mex-3 RNA binding, dose response, biochemical, fluorescence polarization (AID 1964);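 note: purified POS-1 fused to maltose binding protein made in E. coli; potency of compounds blocking POS-1 binding to fluorescent RNA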
T7 sequence (G5EF15 whole entry): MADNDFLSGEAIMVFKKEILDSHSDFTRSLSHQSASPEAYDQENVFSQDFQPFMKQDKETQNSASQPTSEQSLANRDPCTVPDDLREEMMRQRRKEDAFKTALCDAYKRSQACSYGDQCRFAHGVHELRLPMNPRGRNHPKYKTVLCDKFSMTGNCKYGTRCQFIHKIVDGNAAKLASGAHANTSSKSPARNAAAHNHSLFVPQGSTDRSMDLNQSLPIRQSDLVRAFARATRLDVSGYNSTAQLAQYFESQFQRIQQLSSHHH

[13] = target: T8, Zinc finger protein mex-5 (Caenorhabditis elegans, UniProt Q9XUB2); test: MEX-5/TCR-2 RNA interaction inhibitors, dose response, biochemical, C. elegans, fluorescence polarization (AID 1960)
T8 sequence (Q9XUB2 whole entry): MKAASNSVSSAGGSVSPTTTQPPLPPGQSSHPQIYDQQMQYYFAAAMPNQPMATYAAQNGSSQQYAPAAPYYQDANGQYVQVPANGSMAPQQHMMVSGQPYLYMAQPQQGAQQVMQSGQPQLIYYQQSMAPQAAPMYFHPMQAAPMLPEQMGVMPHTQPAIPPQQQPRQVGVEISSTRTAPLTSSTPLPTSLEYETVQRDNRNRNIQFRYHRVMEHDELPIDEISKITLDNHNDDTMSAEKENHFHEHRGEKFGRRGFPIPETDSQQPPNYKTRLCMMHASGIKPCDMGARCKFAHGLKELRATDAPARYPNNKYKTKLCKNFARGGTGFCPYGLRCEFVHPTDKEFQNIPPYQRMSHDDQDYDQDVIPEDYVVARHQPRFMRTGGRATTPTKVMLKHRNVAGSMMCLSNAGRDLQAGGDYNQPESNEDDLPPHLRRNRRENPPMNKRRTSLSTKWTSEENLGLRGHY

[14] = P. falciparum Dd2 growth inhibitors, dose response, SYBR Green, cherry-picked samples (AID 1159567); format: functional, cell-based

T2 sequence (P49327 whole entry, the tested form may be a part): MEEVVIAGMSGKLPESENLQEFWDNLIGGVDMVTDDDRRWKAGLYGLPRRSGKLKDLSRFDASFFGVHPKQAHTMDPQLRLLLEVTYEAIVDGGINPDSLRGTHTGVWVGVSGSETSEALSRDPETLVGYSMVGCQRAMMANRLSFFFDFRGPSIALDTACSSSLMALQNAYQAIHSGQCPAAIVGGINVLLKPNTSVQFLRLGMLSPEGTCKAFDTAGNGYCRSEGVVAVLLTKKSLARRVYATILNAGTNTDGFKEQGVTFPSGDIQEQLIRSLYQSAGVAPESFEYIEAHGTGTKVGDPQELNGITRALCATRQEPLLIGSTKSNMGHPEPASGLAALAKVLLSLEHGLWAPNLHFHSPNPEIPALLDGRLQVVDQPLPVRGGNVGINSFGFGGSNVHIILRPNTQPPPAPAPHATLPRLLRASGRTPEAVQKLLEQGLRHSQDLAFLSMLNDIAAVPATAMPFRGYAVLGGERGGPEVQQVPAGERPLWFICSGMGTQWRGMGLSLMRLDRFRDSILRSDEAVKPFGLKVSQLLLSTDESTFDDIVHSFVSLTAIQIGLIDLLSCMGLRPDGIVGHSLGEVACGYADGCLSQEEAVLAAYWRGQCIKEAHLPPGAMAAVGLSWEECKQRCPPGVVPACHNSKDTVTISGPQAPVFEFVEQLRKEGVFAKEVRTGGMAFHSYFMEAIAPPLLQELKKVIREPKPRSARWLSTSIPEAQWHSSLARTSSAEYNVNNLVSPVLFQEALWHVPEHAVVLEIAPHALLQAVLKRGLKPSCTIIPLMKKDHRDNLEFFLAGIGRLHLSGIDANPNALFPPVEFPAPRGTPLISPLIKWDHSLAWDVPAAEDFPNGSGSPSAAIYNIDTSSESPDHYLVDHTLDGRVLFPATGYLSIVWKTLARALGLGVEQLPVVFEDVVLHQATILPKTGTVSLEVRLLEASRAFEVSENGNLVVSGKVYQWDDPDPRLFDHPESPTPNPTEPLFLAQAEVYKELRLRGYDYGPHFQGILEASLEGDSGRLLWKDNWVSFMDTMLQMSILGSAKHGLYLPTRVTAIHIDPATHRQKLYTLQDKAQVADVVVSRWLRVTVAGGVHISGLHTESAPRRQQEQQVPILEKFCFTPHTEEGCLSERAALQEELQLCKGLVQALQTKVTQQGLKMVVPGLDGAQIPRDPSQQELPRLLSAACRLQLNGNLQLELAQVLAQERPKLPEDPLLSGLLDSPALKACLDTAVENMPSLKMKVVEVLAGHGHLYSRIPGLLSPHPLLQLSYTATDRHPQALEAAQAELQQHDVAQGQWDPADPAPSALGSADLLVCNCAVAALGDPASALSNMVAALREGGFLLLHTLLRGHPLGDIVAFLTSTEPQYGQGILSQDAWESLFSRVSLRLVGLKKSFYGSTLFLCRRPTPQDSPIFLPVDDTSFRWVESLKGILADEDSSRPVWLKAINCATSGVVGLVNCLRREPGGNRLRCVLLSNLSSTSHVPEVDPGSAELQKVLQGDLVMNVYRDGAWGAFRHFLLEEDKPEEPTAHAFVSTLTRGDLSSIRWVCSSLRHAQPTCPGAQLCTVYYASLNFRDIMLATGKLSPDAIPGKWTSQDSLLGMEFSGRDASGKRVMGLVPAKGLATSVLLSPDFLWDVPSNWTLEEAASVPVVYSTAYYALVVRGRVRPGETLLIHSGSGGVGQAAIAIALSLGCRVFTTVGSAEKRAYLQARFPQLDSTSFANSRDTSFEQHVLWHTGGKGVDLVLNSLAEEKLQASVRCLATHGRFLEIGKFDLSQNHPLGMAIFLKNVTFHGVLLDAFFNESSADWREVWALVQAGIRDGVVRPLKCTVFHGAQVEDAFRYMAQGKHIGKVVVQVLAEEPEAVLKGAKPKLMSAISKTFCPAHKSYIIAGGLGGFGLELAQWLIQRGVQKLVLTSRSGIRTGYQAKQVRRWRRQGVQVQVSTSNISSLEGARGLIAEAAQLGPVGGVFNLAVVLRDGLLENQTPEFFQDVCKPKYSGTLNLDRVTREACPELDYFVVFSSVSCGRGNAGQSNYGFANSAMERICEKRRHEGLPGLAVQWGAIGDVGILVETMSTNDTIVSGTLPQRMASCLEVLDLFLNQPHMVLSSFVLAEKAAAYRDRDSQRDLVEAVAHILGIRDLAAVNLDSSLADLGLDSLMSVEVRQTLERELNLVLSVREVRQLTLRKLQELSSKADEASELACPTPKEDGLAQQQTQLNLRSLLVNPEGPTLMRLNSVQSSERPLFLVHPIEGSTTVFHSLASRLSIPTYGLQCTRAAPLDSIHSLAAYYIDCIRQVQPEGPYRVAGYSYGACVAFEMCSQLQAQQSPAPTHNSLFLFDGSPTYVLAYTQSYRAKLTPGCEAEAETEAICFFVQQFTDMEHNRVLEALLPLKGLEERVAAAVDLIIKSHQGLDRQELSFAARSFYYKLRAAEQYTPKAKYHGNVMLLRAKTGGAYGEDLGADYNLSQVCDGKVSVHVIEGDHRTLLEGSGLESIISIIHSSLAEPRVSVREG
T4 sequence (P11940 whole entry): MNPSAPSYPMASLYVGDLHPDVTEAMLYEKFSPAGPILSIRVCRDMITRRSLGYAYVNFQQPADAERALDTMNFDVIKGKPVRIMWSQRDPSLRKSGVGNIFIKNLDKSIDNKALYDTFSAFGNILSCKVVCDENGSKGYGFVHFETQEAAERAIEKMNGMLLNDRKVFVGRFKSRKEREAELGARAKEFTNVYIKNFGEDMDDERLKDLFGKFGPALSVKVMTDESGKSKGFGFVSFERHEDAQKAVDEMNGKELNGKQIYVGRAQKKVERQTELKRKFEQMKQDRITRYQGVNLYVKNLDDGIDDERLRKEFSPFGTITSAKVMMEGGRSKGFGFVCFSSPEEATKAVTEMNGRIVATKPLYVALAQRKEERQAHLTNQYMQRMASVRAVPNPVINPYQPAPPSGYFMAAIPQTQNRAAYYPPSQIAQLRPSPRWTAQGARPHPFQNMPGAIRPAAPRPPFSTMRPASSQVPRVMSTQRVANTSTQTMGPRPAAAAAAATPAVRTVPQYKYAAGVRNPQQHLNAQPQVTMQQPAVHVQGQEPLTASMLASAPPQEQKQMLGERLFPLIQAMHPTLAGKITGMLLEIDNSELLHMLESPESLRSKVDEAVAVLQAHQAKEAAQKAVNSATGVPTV
Chain of Nonstructural protein 1 (Q194T2 whole entry, the tested form may be a part): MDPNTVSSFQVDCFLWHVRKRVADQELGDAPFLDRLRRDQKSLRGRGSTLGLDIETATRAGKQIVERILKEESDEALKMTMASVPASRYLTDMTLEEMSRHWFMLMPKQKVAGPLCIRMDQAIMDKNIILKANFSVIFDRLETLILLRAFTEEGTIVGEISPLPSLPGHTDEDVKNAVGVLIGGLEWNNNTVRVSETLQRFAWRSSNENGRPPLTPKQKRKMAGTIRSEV

Structure (SMILES)	IC50 [3]	IC50 [4]	AC50 [14]	also measured
COc1ccc(C2CC(=O)Oc3c(C(CCN4CCCCC4)c4ccc(N(C)C)cc4)c(OC)cc(OC)c32)cc1 (stereo unspecified)	–	–	–	IC50 [1]: 14.5 µM (active); IC50 [2]: 18 µM (active)
O=[N+]([O-])c1ccc(S(=O)(=O)Nc2nnc(C3CCCCC3)s2)cc1	7.87 µM (active)	7.54 µM (active)	–	–
CC(C)N1C(=O)S/C(=C\c2ccc(-c3ccc(Cl)c(C(=O)O)c3)o2)C1=O	5.26 µM (active)	5.51 µM (active)	–	–
CC(C)(C)NC(=O)NC(=O)COC(=O)Cc1ccc(Cl)cc1Cl	9.97 µM (active)	9.75 µM (active)	–	–
O=C1c2ccccc2C(=O)c2c1cccc2N1CCCC1	–	–	–	EC50 [5]: 55.6 µM (active); IC50 [6]: 14.6 µM (not active); EC50 [7]: > 38 µM (not active); IC50 [2]: 7.3 µM (active)
Cc1ccc(S(=O)(=O)Nc2nc3ccccc3nc2Nc2cccc(S(=O)(=O)N3CCCC3)c2)cc1	–	–	–	IC50 [8]: > 66 µM (inactive); IC50 [9]: > 66 µM (inactive)
Cn1c(=O)c([N+](=O)[O-])c(N2CCN(Cc3ccc4c(c3)OCO4)CC2)c2ccccc21	2.71 µM (active)	4.73 µM (active)	–	–
O=C1OC(c2ccccc2)=NC12CC2c1ccc(Cl)cc1 (stereo unspecified)	0.293 µM (active)	0.238 µM (active)	–	–
Cc1nc(CCNC(=O)CC2C(=O)NCCN2Cc2ccccc2)sc1C (stereo unspecified)	–	–	–	IC50 [8]: > 66 µM (inactive); IC50 [9]: > 66 µM (inactive)
CC(C)(C)OC(=O)NCCCC[C@H](NC(=O)c1[nH]cnc1C(=O)Nc1ccccc1)C(=O)OC(C)(C)C	2.63 µM (active)	3.01 µM (active)	–	–
CCC(CC)COC(=O)C1=C(C)NC(=O)NC1c1ccc([N+](=O)[O-])cc1 (stereo unspecified)	4.35 µM (active)	5.94 µM (active)	–	–
CN1CCN(NC(=O)CN2C(=O)S/C(=C\c3c(Cl)cccc3Cl)C2=O)CC1	–	–	–	IC50 [8]: > 66 µM (inactive); IC50 [9]: > 66 µM (inactive)
CCN(C(=O)COC(=O)c1cc([N+](=O)[O-])ccc1N1CCOCC1)c1ccccc1	1.94 µM (active)	1.86 µM (active)	–	–
C[C@H](O)[C@H](O)[C@H]1CNc2nc(N)[nH]c(=O)c2N1	–	–	–	IC50 [8]: > 66 µM (inactive); IC50 [9]: > 66 µM (inactive)
O=C1NC(=O)N2CCSC2(Cc2ccccc2)N1 (stereo unspecified)	–	–	–	IC50 [8]: > 66 µM (inactive); IC50 [9]: > 66 µM (inactive)
CCOC(=O)c1cnc(-n2[nH]c(C)c(Cc3ccccc3)c2=O)[nH]c1=O	–	–	–	EC50 [10]: 5.99 µM (active); AC50 [11]: 9.77 µM (active); IC50 [2]: 3.4 µM (active)
O=C(N/N=C\C1C(=O)NC(=S)N(c2ccccc2)C1=O)c1ccc(O)cc1 (stereo unspecified)	–	–	–	EC50 [12]: > 300 µM (not active); EC50 [13]: 63.7 µM (active); IC50 [2]: 9.86 µM (active)
CN1c2ccc(-c3cccc(F)c3)cc2[C@@H]2[C@@H](CCN2C(=O)C2CC2)[C@@H]1CO	–	–	16.8 µM (active)	–
CCC(=O)N1CCC2(CC1)CN(Cc1ccc(Cl)cc1)[C@@H](CO)c1[nH]c3cc(OC)ccc3c12	–	–	3.79 µM (active)	–
C[C@H]1CN([C@@H](C)CO)S(=O)(=O)c2ccc(C#Cc3ccncc3)cc2O[C@@H]1CN(C)S(=O)(=O)c1ccc(F)cc1	–	–	3.9 µM (active)	–
CCC(=O)N1CCC2(CC1)CN(C(=O)Nc1ccc(F)cc1)[C@@H](CO)c1c2c2ccc(OC)cc2n1C	–	–	4.37 µM (active)	–
COc1ccc2c3c(n(C)c2c1)[C@@H](CO)N(S(C)(=O)=O)CC31CCN(C(=O)CN(C)C)CC1	–	–	4.28 µM (active)	–
CCCN(C)C[C@@H]1Oc2cc(C#Cc3ccccc3)ccc2S(=O)(=O)N([C@@H](C)CO)C[C@@H]1C	–	–	4.59 µM (active)	–
O=C(C1CCCC1)N1CC(=O)N2[C@H](CO)[C@@H](c3ccc(C#CCc4ccccc4)cc3)[C@@H]2C1	–	–	6.57 µM (active)	–
CO[C@@H]1CN(C)C(=O)c2ccc(NC(=O)c3nc4ccccc4s3)cc2OC[C@H](C)N(Cc2cccnc2)C[C@@H]1C	–	–	5 µM (active)	–
